This experiment is described as follows: Inhibition of human recombinant PHD2 (181-426) expressed in Escherichia coli BL21 (DE3) by TR-FRET assay.

For `O=C(O)c1ccnc(C(=O)O)c1`, the IC50 is 1.91 µM. In the case of `O=C(O)/C=C/C(=O)O` [FUMARIC ACID] it was 19.1 µM.

The values are drawn from ChEMBL document CHEMBL1138478, “Application of a proteolysis/mass spectrometry method for investigating the effects of inhibitors on hydroxylase structure” (J Med Chem, 2009).
